Results from the NIST ThermoML archive (doi:10.1021/acs.jced.8b00132).
Values joined by “and” are separate entries in the source; they are usually repeats but may differ in a detail not shown here. Equal entries are not always repeated. Numbers after ± are expanded uncertainties.

O=C(C(F)(F)C(F)(F)F)C(F)(C(F)(F)F)C(F)(F)F [dodecafluoro-2-methylpentan-3-one]
Conditions	thermal conductivity
330 K, 67724 kPa, Liquid, transient hot wire	0.07584 ± 0.0016 W/m/K
330.01 K, 117 kPa, Gas, hot wire	0.01411 ± 0.00069 W/m/K
330.01 K, 14125 kPa, Liquid, transient hot wire	0.05895 ± 0.0012 W/m/K
330.01 K, 14129 kPa, Liquid, transient hot wire	0.05898 ± 0.0012 W/m/K
330.02 K, 117 kPa, Gas, hot wire	0.01412 ± 0.00069 W/m/K
330.02 K, 36718 kPa, Liquid, transient hot wire	0.0672 ± 0.0014 W/m/K
330.02 K, 36720 kPa, Liquid, transient hot wire	0.06721 ± 0.0014 W/m/K
330.06 K, 57396 kPa, Liquid, transient hot wire	0.07315 ± 0.0015 W/m/K
330.06 K, 57404 kPa, Liquid, transient hot wire	0.07318 ± 0.0015 W/m/K
330.09 K, 27942 kPa, Liquid, transient hot wire	0.06426 ± 0.0013 W/m/K
330.09 K, 27945 kPa, Liquid, transient hot wire	0.06429 ± 0.0013 W/m/K
330.1 K, 8617 kPa, Liquid, transient hot wire	0.05649 ± 0.0012 W/m/K
330.1 K, 8619 kPa, Liquid, transient hot wire	0.0565 ± 0.0012 W/m/K
330.14 K, 4470 kPa, Liquid, transient hot wire	0.05444 ± 0.0011 W/m/K
330.14 K, 46576 kPa, Liquid, transient hot wire	0.07022 ± 0.0014 W/m/K
330.14 K, 46583 kPa, Liquid, transient hot wire	0.07015 ± 0.0014 W/m/K
330.15 K, 4473 kPa, Liquid, transient hot wire	0.05441 ± 0.0011 W/m/K
330.16 K, 20517 kPa, Liquid, transient hot wire	0.06186 ± 0.0013 W/m/K
330.16 K, 20518 kPa, Liquid, transient hot wire	0.06149 ± 0.0013 W/m/K
330.19 K, 67678 kPa, Liquid, transient hot wire	0.07583 ± 0.0016 W/m/K
330.2 K, 67695 kPa, Liquid, transient hot wire	0.07583 ± 0.0016 W/m/K
330.21 K, 178 kPa, Liquid, transient hot wire	0.05173 ± 0.0011 W/m/K
330.22 K, 178 kPa, Liquid, transient hot wire	0.05205 ± 0.0011 W/m/K
330.23 K, 180 kPa, Liquid, transient hot wire	0.05206 ± 0.0011 W/m/K
330.23 K, 36712 kPa, Liquid, transient hot wire	0.06716 ± 0.0014 W/m/K
330.23 K, 36715 kPa, Liquid, transient hot wire	0.06712 ± 0.0014 W/m/K
330.24 K, 180 kPa, Liquid, transient hot wire	0.05202 ± 0.0011 W/m/K
330.24 K, 14124 kPa, Liquid, transient hot wire	0.05892 ± 0.0012 W/m/K
330.24 K, 14130 kPa, Liquid, transient hot wire	0.05892 ± 0.0012 W/m/K
330.26 K, 57370 kPa, Liquid, transient hot wire	0.07313 ± 0.0015 W/m/K
330.26 K, 57385 kPa, Liquid, transient hot wire	0.07314 ± 0.0015 W/m/K
330.31 K, 27940 kPa, Liquid, transient hot wire	0.06422 ± 0.0013 W/m/K
330.31 K, 27943 kPa, Liquid, transient hot wire	0.06422 ± 0.0013 W/m/K
330.33 K, 8610 kPa, Liquid, transient hot wire	0.05657 ± 0.0012 W/m/K
330.33 K, 8620 kPa, Liquid, transient hot wire	0.05647 ± 0.0012 W/m/K
330.35 K, 46566 kPa, Liquid, transient hot wire	0.07011 ± 0.0014 W/m/K
330.35 K, 46569 kPa, Liquid, transient hot wire	0.07013 ± 0.0014 W/m/K
330.38 K, 4468 kPa, Liquid, transient hot wire	0.05439 ± 0.0011 W/m/K
330.39 K, 4469 kPa, Liquid, transient hot wire	0.0544 ± 0.0011 W/m/K
330.39 K, 20517 kPa, Liquid, transient hot wire	0.06147 ± 0.0013 W/m/K
330.4 K, 20518 kPa, Liquid, transient hot wire	0.06147 ± 0.0013 W/m/K
330.45 K, 36702 kPa, Liquid, transient hot wire	0.06713 ± 0.0014 W/m/K
330.45 K, 36716 kPa, Liquid, transient hot wire	0.06714 ± 0.0014 W/m/K
330.46 K, 179 kPa, Liquid, transient hot wire	0.052 ± 0.0011 W/m/K
330.47 K, 179 kPa, Liquid, transient hot wire	0.05202 ± 0.0011 W/m/K
330.48 K, 180 kPa, Liquid, transient hot wire	0.05201 ± 0.0011 W/m/K
330.48 K, 181 kPa, Liquid, transient hot wire	0.052 ± 0.0011 W/m/K
330.48 K, 14128 kPa, Liquid, transient hot wire	0.05889 ± 0.0012 W/m/K
330.48 K, 14134 kPa, Liquid, transient hot wire	0.05891 ± 0.0012 W/m/K
330.53 K, 27942 kPa, Liquid, transient hot wire	0.0642 ± 0.0013 W/m/K
330.54 K, 27944 kPa, Liquid, transient hot wire	0.06418 ± 0.0013 W/m/K
330.58 K, 8615 kPa, Liquid, transient hot wire	0.0564 ± 0.0012 W/m/K
330.58 K, 8617 kPa, Liquid, transient hot wire	0.05641 ± 0.0012 W/m/K
330.63 K, 4467 kPa, Liquid, transient hot wire	0.05435 ± 0.0011 W/m/K
330.63 K, 20513 kPa, Liquid, transient hot wire	0.06146 ± 0.0013 W/m/K
330.64 K, 4463 kPa, Liquid, transient hot wire	0.05433 ± 0.0011 W/m/K
330.64 K, 20514 kPa, Liquid, transient hot wire	0.06146 ± 0.0013 W/m/K
330.73 K, 179 kPa, Liquid, transient hot wire	0.05196 ± 0.0011 W/m/K and 0.05197 ± 0.0011 W/m/K
330.73 K, 181 kPa, Liquid, transient hot wire	0.05196 ± 0.0011 W/m/K and 0.05215 ± 0.0011 W/m/K
330.73 K, 14130 kPa, Liquid, transient hot wire	0.05885 ± 0.0012 W/m/K
330.74 K, 14134 kPa, Liquid, transient hot wire	0.0589 ± 0.0012 W/m/K
330.84 K, 8608 kPa, Liquid, transient hot wire	0.05637 ± 0.0012 W/m/K
330.84 K, 8609 kPa, Liquid, transient hot wire	0.05639 ± 0.0012 W/m/K
330.91 K, 4465 kPa, Liquid, transient hot wire	0.05432 ± 0.0011 W/m/K and 0.0543 ± 0.0011 W/m/K
331.01 K, 179 kPa, Liquid, transient hot wire	0.05176 ± 0.0011 W/m/K and 0.05194 ± 0.0011 W/m/K
331.01 K, 180 kPa, Liquid, transient hot wire	0.05194 ± 0.0011 W/m/K
331.01 K, 181 kPa, Liquid, transient hot wire	0.05193 ± 0.0011 W/m/K
331.09 K, 3942 kPa, Liquid, transient hot wire	0.05385 ± 0.0011 W/m/K
331.1 K, 3945 kPa, Liquid, transient hot wire	0.05411 ± 0.0011 W/m/K
331.21 K, 28078 kPa, Liquid, transient hot wire	0.06464 ± 0.0013 W/m/K
331.22 K, 20447 kPa, Liquid, transient hot wire	0.06133 ± 0.0013 W/m/K
331.22 K, 28080 kPa, Liquid, transient hot wire	0.06416 ± 0.0013 W/m/K
331.23 K, 20449 kPa, Liquid, transient hot wire	0.06095 ± 0.0013 W/m/K
331.24 K, 14112 kPa, Liquid, transient hot wire	0.05849 ± 0.0012 W/m/K
331.25 K, 14113 kPa, Liquid, transient hot wire	0.05865 ± 0.0012 W/m/K
331.28 K, 8580 kPa, Liquid, transient hot wire	0.05626 ± 0.0012 W/m/K
331.28 K, 8582 kPa, Liquid, transient hot wire	0.05648 ± 0.0012 W/m/K
331.31 K, 242 kPa, Liquid, transient hot wire	0.05138 ± 0.0011 W/m/K and 0.05151 ± 0.0011 W/m/K
331.36 K, 73 kPa, Liquid, transient hot wire	0.05184 ± 0.0011 W/m/K
331.36 K, 69235 kPa, Liquid, transient hot wire	0.07553 ± 0.0015 W/m/K
331.36 K, 69237 kPa, Liquid, transient hot wire	0.07531 ± 0.0015 W/m/K
331.37 K, 107 kPa, Liquid, transient hot wire	0.05182 ± 0.0011 W/m/K
331.37 K, 57734 kPa, Liquid, transient hot wire	0.07228 ± 0.0015 W/m/K
331.37 K, 57739 kPa, Liquid, transient hot wire	0.07238 ± 0.0015 W/m/K
